The values below come from ChEMBL document CHEMBL1201862, “PubChem BioAssay data set” (2004).

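Grown in 96-well plates, cells were treated for 48 hours with each compound at five concentrations. Insufficient inhibition: endpoint recorded as highest concentration tested. At the GI50, growth is halved.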 The source made the active and inactive calls. Cut-off read from the data, not from the text of the source: active = GI50 up to about 1.1 µM and inactive = higher.

Assay in all cases: NCI tumour cell line growth inhibition, 48 h
The subject of test [1] is UACC-257.
Test [2] relates to 786-0.
The test system of test [3] is U-251.
Test [4] deals with MOLT-4.
The test system of test [5] is HCT-15.
The test system of test [6] is SK-OV-3.
In test [7] the test system is MDA-N.
The subject of test [8] is K562.
For test [9], the system named is HCC 2998.
Test [10] relates to SW-620.
Test [11] has as its system UO-31.
The subject of test [12] is A498.
The subject of test [13] is A549.
For test [14], the system named is SK-MEL-5.
Test [15] relates to IGROV-1.
The test system of test [16] is SF-539.
Test [17] concerns OVCAR-5.
The test system of test [18] is MDA-MB-231.
Test [19] has as its system NCI-H522.
Test [20] relates to SNB-75.

In the case of `O=C1COc2ccc([N+](=O)[O-])cc2C(=O)C1`, the GI50 was > 10 µM (inactive) in test [1]; > 10 µM (inactive) in test [2]; > 10 µM (inactive) in test [3]; > 10 µM (inactive) in test [4]; greater than 10 µM in test [5]; > 10 µM (inactive) in test [6]. Besides, the GI50 in test [7], in test [8], in test [9], in test [10], in [11] and in test [12] was > 10 µM (inactive) each time. In addition, the GI50 in test [13], in [14], in test [15], in test [16], in [17] and in test [18] was > 10 µM (inactive) each time.

As for `O=C(N/N=C1\CCc2ccccc2C1)N/N=C1\CCc2ccccc2C1`, the GI50 in test [1] was > 10 µM (inactive); in test [2] it was > 10 µM (inactive); in test [3], > 10 µM (inactive); in test [4] it was > 10 µM (inactive); in [5], greater than 10 µM; in test [7], > 10 µM (inactive). The GI50 in [8], in [9], in test [10], in test [11], in test [13] and in test [17] was > 10 µM (inactive) throughout. Besides, the GI50 in [18] and in [19] was > 10 µM (inactive) in each case.

On to `CC1C[C@]2(C)C(NCCN)=Nc3ccccc3[C@@H]2N(C)c2ccccc21` (some centres not stated), for which the GI50 in [1] is 5.04 µM (inactive); in [2], 12.2 µM (inactive); in test [4], 27.8 µM (inactive); in [5], 17.3 µM; in test [20], 3.45 µM (inactive); in test [7], 13.9 µM (inactive). The GI50 in [8] is 11.9 µM (inactive); in test [9] it was 2.9 µM (inactive); in [10] it was 17.5 µM (inactive); in test [11] it was 11.2 µM (inactive); in test [12], 16.5 µM (inactive); in test [13], 16.4 µM (inactive). Besides, the GI50 in test [14] is 13.7 µM (inactive); in test [15], 14.1 µM (inactive); in [16], 12.4 µM (inactive); in test [17], 14 µM (inactive); in test [18], 8.57 µM (inactive).

For `O=C1CN(c2ccccc2)C(=O)CN1CCN1CC(=O)N(c2ccccc2)CC1=O`, the GI50 is > 100 µM (inactive) in test [1]; > 100 µM (inactive) in [2]; > 100 µM (inactive) in [3]; > 10 µM (inactive) in test [4]; greater than 100 µM in test [5]; > 100 µM (inactive) in [20]. For the same compound, the GI50 in test [6], in test [7], in [9], in test [10], in test [11] and in test [12] was > 100 µM (inactive) throughout. Further, the GI50 in test [13], in [14], in test [15], in test [16], in [17] and in test [19] was > 100 µM (inactive) in each case.

`[O-][S+]1CC[S+]([O-])CC[S+]([O-])CC1` (configuration not stated): the GI50 was > 100 µM (inactive) in [1]; > 100 µM (inactive) in test [2]; > 100 µM (inactive) in test [3]; > 100 µM (inactive) in test [4]; greater than 100 µM in [5]; > 100 µM (inactive) in test [20]. Also, the GI50 in test [6], in test [7], in test [8], in test [9], in test [10] and in test [11] was > 100 µM (inactive) in each case. Besides, the GI50 in test [13], in [14], in test [15], in [16], in test [17] and in test [18] was > 100 µM (inactive) each time. In addition, the GI50 in test [19] was > 100 µM (inactive).

In the case of `OCC1OC(c2ccccc2)CC1O` (configuration not stated), the GI50 in test [1] was > 100 µM (inactive); in test [2] it was > 100 µM (inactive); in test [3] it was > 100 µM (inactive); in test [4], > 100 µM (inactive); in test [5] it was greater than 100 µM; in test [20], > 100 µM (inactive). Also, the GI50 in test [6], in test [8], in test [10], in test [11], in test [12] and in test [13] was > 100 µM (inactive) throughout. For the same compound, the GI50 in [14], in test [15], in test [16], in test [17] and in [18] was > 100 µM (inactive) each time.

Regarding `CN(CCCCCl)P(=O)(OCc1ccc([N+](=O)[O-])o1)OCC1OC(n2ccc(N)nc2=O)C(O)C1O` (configuration not stated), the GI50 in test [1] was 2.21 µM (inactive); in test [2], 13.4 µM (inactive); in [3], 2.14 µM (inactive); in test [4] it was 0.305 µM (active); in [5], 41.4 µM; in test [20], 0.571 µM (active). The GI50 in test [6] is 4.17 µM (inactive); in test [7], 1.82 µM (inactive); in test [8], 2.99 µM (inactive); in test [9], 3.37 µM (inactive); in test [10] it was 2.45 µM (inactive); in [11], 14.2 µM (inactive). Besides, the GI50 is 0.303 µM (active) in [13]; 0.097 µM (active) in [14]; 3.08 µM (inactive) in test [15]; 10.1 µM (inactive) in [16]; 14.8 µM (inactive) in test [17]; 18.9 µM (inactive) in test [18]. For the same compound, the GI50 in [19] is 3.15 µM (inactive).

For `Fc1cccc(Cl)c1C1SCc2nc3cc4ccccc4cc3n21` (configuration not stated), the GI50 is > 100 µM (inactive) in [1]; 39.4 µM (inactive) in test [2]; > 100 µM (inactive) in test [3]; > 100 µM (inactive) in test [4]; greater than 100 µM in test [5]; 37 µM (inactive) in test [6]. For the same compound, the GI50 in [7] is > 100 µM (inactive); in test [8], > 100 µM (inactive); in [9], > 100 µM (inactive); in test [10] it was > 100 µM (inactive); in [13] it was > 100 µM (inactive); in test [15] it was 46.9 µM (inactive). The GI50 in test [16] is 82.8 µM (inactive); in [17] it was > 100 µM (inactive); in [18], 61.5 µM (inactive).

As for `O=C1N[C@H](C(=O)O)[C@@H](c2ccc(OCc3ccccc3)cc2)O1`, the GI50 in test [1] was > 100 µM (inactive); in test [2], 16.6 µM (inactive); in [3], 27.9 µM (inactive); in test [4], > 100 µM (inactive); in test [5], 41.8 µM; in [20], 10.8 µM (inactive). Also, the GI50 in test [6] was 44.1 µM (inactive); in [7] it was > 100 µM (inactive); in test [8], > 100 µM (inactive); in test [9], > 100 µM (inactive); in test [10], > 100 µM (inactive); in test [11], > 100 µM (inactive). The GI50 in test [13] was 81.5 µM (inactive); in [14], > 100 µM (inactive); in [15], 20.9 µM (inactive); in [17], > 100 µM (inactive); in test [18] it was 23.2 µM (inactive); in test [19], 37.3 µM (inactive).

With `CC(=O)c1ccc(/N=N/c2ccc3nonc3c2N)cc1`, the GI50 was > 100 µM (inactive) in test [1]; > 100 µM (inactive) in test [2]; > 100 µM (inactive) in [3]; > 100 µM (inactive) in test [4]; greater than 100 µM in test [5]; 94.4 µM (inactive) in [20]. The GI50 in [6], in test [7], in test [8], in [9], in test [10] and in test [11] was > 100 µM (inactive) in each case. Further, the GI50 in [13], in test [14], in test [15], in test [16], in test [17] and in test [18] was > 100 µM (inactive) each time.

`C=C1C(=O)C23CC1CCC2C12CO[C@H](O)[C@H]1C(C)(C)[C@H](OC(C)=O)C[C@H]2OC3=O` (some centres not stated): the GI50 in [1] is 30.3 µM (inactive); in [2] it was 16 µM (inactive); in [3] it was 64.1 µM (inactive); in test [4], 15.2 µM (inactive); in [5] it was 14.6 µM; in [20], 46.2 µM (inactive). Besides, the GI50 in test [6] is > 100 µM (inactive); in [7], 16.1 µM (inactive); in [8], 5.9 µM (inactive); in [9], 22.6 µM (inactive); in test [10] it was 14.3 µM (inactive); in test [11] it was 22.9 µM (inactive). Moreover, the GI50 in test [13] was > 100 µM (inactive); in [14], 30.8 µM (inactive); in [15], 31.9 µM (inactive); in [16], 20 µM (inactive); in test [17] it was 18.8 µM (inactive); in test [18], 19.8 µM (inactive). The GI50 in test [19] was 1.26 µM (inactive).
